Results as given in patent US20240252500A1, “Treatment of chronic pruritic dermatoses” (CymaBay Therapeutics, Inc., priority 2023, published 2024).
Like-named read-outs stand apart in the source and are kept apart here. One block for each compound: values may come before it.

How the values were obtained:
[1] = tested on: human IL-31; assay: Serum human IL-31 in PXB mice (humanized liver); type: in vivo, PXB mouse; details: 2 h after last dose, day 0 0.13 pg/mL
Source text: The PXB mouse (PhoenixBio Co., Ltd., Higashi-Hiroshima, Japan) is a chimeric mouse with a humanized liver, produced by transplanting human hepatocytes into the albumin enhancer/promoter-urokinase-type plasminogen activator complementary DNA transgenic/SCID mouse. The mouse has its liver repopulated by human hepatocytes at a ratio of more than 70%, typically 85-90%, as assessed by measuring the ratio of human albumin to mouse albumin in the blood. The transplanted human hepatocytes express a variety of human messenger RNA (mRNA) and proteins, in a similar manner to those of the normal human liver. […] The study was conducted at PhoenixBio. Male PXB mice aged about 25 weeks, kept in single animal cages and fed CRF1 mouse chow supplemented with AS primate chow for vitamin C supplementation (both from Oriental Yeast Co., Ltd., Tokyo, Japan), were randomized into groups (10/group) based on mean values for body weight and blood human albumin concentration. […] Two hours after the last dose, each mouse was anesthetized with isoflurane, at least 400 μL blood was collected by cardiac puncture, and the mouse sacrificed by exsanguination. The blood samples were left to coagulate at room temperature for at least 5 minutes, then centrifuged at 13200×g for 3 minutes at 4° C. to obtain serum, which was analyzed for human IL-31.

[2] = PBC patients, 12 months, cited from earlier work
[3] = tested on: human IL-31; details: humanized liver murine model; cited from earlier work
[4] = tested on: IL-31; details: NASH patients; cited from earlier work
[5] = target: T1, peroxisome proliferator-activated receptor-α (Homo sapiens, UniProt Q07869); assay: PPARα agonism / selectivity; type: biochemical
T1 sequence (Q07869 1-468): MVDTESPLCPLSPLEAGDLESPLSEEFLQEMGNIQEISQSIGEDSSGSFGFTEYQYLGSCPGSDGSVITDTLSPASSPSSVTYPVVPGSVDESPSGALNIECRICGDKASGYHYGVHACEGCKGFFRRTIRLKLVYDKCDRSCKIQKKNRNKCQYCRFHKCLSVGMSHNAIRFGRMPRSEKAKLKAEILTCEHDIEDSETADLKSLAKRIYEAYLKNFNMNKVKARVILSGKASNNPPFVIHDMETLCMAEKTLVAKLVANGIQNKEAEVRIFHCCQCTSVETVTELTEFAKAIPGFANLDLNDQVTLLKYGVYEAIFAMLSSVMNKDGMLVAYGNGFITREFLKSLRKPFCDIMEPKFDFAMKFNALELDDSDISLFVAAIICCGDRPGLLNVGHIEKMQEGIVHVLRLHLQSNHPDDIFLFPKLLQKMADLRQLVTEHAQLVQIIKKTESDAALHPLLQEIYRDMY

[6] = tested on: CD4 T cells; assay: IL-31 production by CD4 T cells under Th2-promoting conditions; type: cell-based, human; details: both donors, both promoters; p<0.0001, Mann-Whitney test
Procedure: CD4 T cells were enriched from peripheral blood mononuclear cells collected from two normal healthy donors, using the EasySep™ Human CD4+ T Cell Isolation Kit ([…] Technologies). 100,000 CD4 T cells were seeded in a U-bottom 96-well-plate well, and cultured in Th2-promoting conditions promoted by IL-4 or IL-33. […] On day 5 of culture, the anti-CD3/CD28 beads were diluted by adding 150 μL TCM. From days 5 to 13, the cells were cultured in the presence of the same reagents as for days 1 to 4 plus 50 ng/mL IL-2; and the cell culture medium was renewed every 2-3 days by a change of 50% volume of the medium. On day 13 or day 14, the expanded T cells in an individual well were split to four to six wells of 96-well-plate wells; and 5 ng/mL phorbol myristate acetate and 500 ng/mL ionomycin were added for 3 days to re-activate the T cells. The IL-31 concentration in the culture medium of each well was determined using the V-PLEX Human IL-31 Kit (Meso Scale Diagnostics, LLC; Rockville, MD, USA).

[7] = tested on: IL-31; assay: Serum IL-31 in PBC subjects, phase 3 study (ENHANCE, NCT03602560); type: in vivo, human; details: before treatment
Source text: The trial subjects in this phase 3 study were adult, male or female, with a diagnosis of PBC. Exclusion criteria included AST or ALT≥3×ULN, total bilirubin (TBIL)≥2×ULN, autoimmune hepatitis or a history of chronic viral hepatitis, PSC, the current use of fibrates or simvastatin, the use of colchicine, methotrexate, azathioprine, or systemic steroids in the previous two months, the use of an experimental treatment for PBC, and the use of an experimental or unapproved immunosuppressant. […] Serum IL-31 and its correlation with patient-reported pruritus numerical rating scale (NRS, 0-10) were assessed.

[8] = tested on: atopic dermatitis-associated pruritus; assay: Oral treatment of pruritic atopic dermatitis; type: in vivo, human
Procedure: (§1) Subjects are permitted their usual other medications. […] At each visit, the subjects are assessed for their disease symptoms and biomarkers, and assessed for pruritus. The subjects also maintain health diaries, which are reviewed at each visit.
(§2) Adult subjects with pruritic atopic dermatitis are treated orally with doses of 5, 10, 25, 50, and 100 mg/day of mavodelpar. Subjects are permitted their usual other medications. The subjects are assessed before the study, and at intervals during the study, such as every 4 weeks during the study and 4 weeks after the last dose of the mavodelpar therapy, for safety and pharmacodynamic evaluations. At each visit, the subjects are assessed for their disease symptoms and biomarkers, and assessed for atopic dermatitis-associated pruritus. The subjects also maintain health diaries, which are reviewed at each visit.

[9] = tested on: atopic dermatitis-associated pruritus; assay: Topical ointment treatment of pruritic atopic dermatitis; type: in vivo, human
Procedure: as §1
as §2, with “topically” for “orally”, “an ointment containing 1, 2,” for “doses of”, “or 10%” for “10, 25, 50, and 100 mg/day”, “for” for “for atopic dermatitis-associated”

[10] = Seladelpar oral studies in primary biliary cholangitis; type: in vivo, human
[11] = Oral bioavailability of seladelpar; details: in vivo
[12] = target: T1, peroxisome proliferator-activated receptor-α; details: Alzheimer's Drug Discovery Foundation Cognitive Vitality Report, November 2021; read-out: EC50 for PPARα; cited from earlier work
[13] = target: T2, peroxisome proliferator-activated receptor-γ (Homo sapiens, UniProt P37231); details: Alzheimer's Drug Discovery Foundation Cognitive Vitality Report, November 2021; read-out: EC50 for PPARγ; cited from earlier work
T2 sequence (P37231 1-505): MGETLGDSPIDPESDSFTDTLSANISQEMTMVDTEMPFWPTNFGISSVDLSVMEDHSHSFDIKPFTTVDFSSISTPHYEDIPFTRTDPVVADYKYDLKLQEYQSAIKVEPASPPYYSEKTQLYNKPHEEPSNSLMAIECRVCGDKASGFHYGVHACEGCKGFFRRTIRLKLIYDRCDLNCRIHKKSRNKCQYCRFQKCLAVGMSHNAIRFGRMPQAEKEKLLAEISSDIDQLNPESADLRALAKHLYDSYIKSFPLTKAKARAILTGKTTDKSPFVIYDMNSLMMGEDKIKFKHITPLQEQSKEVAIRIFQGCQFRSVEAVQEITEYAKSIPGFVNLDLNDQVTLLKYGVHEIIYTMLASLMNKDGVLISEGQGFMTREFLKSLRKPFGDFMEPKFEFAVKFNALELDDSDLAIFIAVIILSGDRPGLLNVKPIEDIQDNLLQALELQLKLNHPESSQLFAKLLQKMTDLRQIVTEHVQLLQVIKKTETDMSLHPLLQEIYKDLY

[14] = animal models and humans; cited from earlier work
[15] = several animal models of type 2 diabetes; cited from earlier work
[16] = early clinical studies; cited from earlier work

Structure (SMILES): CC[C@H]1[C@@H](O)[C@@H]2[C@H](CC[C@]3(C)[C@@H]([C@H](C)CCC(=O)O)CC[C@@H]23)[C@@]2(C)CC[C@@H](O)C[C@@H]12 [obeticholic acid]
serum human IL-31 concentration ([1]; gavage 10 mL/kg of 1 mg/mL once/day for 19 days): 3.7 pg/mL
patients reporting severe pruritus ([2]; OCALIVA 10 mg arm): 23%
patients reporting severe pruritus ([2]; OCALIVA titration arm): 19%
IL-31 mRNA expression in human hepatocytes [3]: increased

Structure (SMILES): O=C(O)c1ccnc(N2CC(O)(c3ccc(OCc4c(-c5c(Cl)cccc5Cl)noc4C4CC4)cc3Cl)C2)c1 [cilofexor]
effect on IL-31 [4]: increased IL-31

specificity for PPARδ compared with PPARα [5]: > 600 fold
effect on cholestatic pruritus (exacerbation) ([10]; oral 5, 10, 50 and 200 mg/day in PBC): not to exacerbate cholestatic pruritus
oral bioavailability [11]: high
Structure (SMILES): CCO[C@H](COc1ccc(C(F)(F)F)cc1)CSc1ccc(OCC(=O)O)c(C)c1 [seladelpar, [4-({(2R)-2-ethoxy-3-[4-(trifluoromethyl)phenoxy]propyl}sulfanyl)-2-methylphenoxy]acetic acid]
IL-31 production vs DMSO control [6]: reduced IL-31 production
serum human IL-31 concentration ([1]; gavage 10 mL/kg of 10 mg/mL once/day for 19 days): 0.19 pg/mL
mean serum IL-31, baseline ([7]; 5 mg/day oral as L-lysine dihydrate salt): 3.8 pg/mL
mean serum IL-31, baseline ([7]; 10 mg/day oral as L-lysine dihydrate salt): 4.2 pg/mL
atopic dermatitis-associated pruritus ([8]; oral 5, 10, 25 and 50 mg/day seladelpar): improvement in their atopic dermatitis-associated pruritus
atopic dermatitis-associated pruritus ([9]; ointment containing 1, 2, 5 or 10% seladelpar): improvement in their atopic dermatitis-associated pruritus
efficacy in PBC ([10]; oral 5, 10, 50 and 200 mg/day): effective in the treatment of PBC
efficacy in cholestatic pruritus associated with PBC ([10]; oral 5 and 10 mg/day): effective in the treatment of cholestatic pruritus

Structure (SMILES): Cc1cc(OC/C=C(/c2ccc(F)cc2)c2ccc(C#CCN3CCOCC3)cc2)ccc1OCC(=O)O [mavodelpar, (4-{[(2E)-3-(4-fluorophenyl)-3-{4-[3-(morpholin-4-yl)prop-1-yn-1-yl]phenyl}prop-2-en-1-yl]oxy}-2-methylphenoxy)acetic acid]
atopic dermatitis-associated pruritus ([8]; oral 5, 10, 25, 50 and 100 mg/day mavodelpar): improvement in their atopic dermatitis-associated pruritus
atopic dermatitis-associated pruritus ([9]; ointment containing 1, 2, 5 or 10% mavodelpar): improvement in their atopic dermatitis-associated pruritus
EC50 [12]: > 10 µM
EC50 [13]: > 10 µM
high-density lipoprotein cholesterol [14]: significant increase in high-density lipoprotein cholesterol
low-density lipoprotein cholesterol and triglycerides [14]: lowering of low-density lipoprotein cholesterol and triglycerides
anti-diabetic effect [15]: anti-diabetic effect
tolerability [16]: well tolerated
